Each block holds one compound with its values, some of them ahead of it. Active and inactive are the calls of the source.
What was measured:
[1] = Luminescence Cell-Based Dose Retest to Confirm Inhibitors of Cancer Stem Cells. [Related pubchem assays (depositor defined):AID2717, AID2721]; format: functional, Homo sapiens; settings: Homo sapiens
[2] = cytotoxicity in HMLE control line with eGFP shRNA, dose response, counter-screen for HMLE_sh_ECad selective toxicity project, cell-based, HMLE_sh_eGFP, luminescence (AID 463074); format: functional, Homo sapiens;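 also: HMLE human mammary epithelial cells expressing control shRNA against eGFP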
[3] = target: T1, Sentrin-specific protease 7 (Homo sapiens, UniProt Q9BQF6); assay: SENP7 protease inhibitors, SAR follow-up, biochemical, luminescence (AID 504497); format: functional
T1 sequence (Q9BQF6 whole entry): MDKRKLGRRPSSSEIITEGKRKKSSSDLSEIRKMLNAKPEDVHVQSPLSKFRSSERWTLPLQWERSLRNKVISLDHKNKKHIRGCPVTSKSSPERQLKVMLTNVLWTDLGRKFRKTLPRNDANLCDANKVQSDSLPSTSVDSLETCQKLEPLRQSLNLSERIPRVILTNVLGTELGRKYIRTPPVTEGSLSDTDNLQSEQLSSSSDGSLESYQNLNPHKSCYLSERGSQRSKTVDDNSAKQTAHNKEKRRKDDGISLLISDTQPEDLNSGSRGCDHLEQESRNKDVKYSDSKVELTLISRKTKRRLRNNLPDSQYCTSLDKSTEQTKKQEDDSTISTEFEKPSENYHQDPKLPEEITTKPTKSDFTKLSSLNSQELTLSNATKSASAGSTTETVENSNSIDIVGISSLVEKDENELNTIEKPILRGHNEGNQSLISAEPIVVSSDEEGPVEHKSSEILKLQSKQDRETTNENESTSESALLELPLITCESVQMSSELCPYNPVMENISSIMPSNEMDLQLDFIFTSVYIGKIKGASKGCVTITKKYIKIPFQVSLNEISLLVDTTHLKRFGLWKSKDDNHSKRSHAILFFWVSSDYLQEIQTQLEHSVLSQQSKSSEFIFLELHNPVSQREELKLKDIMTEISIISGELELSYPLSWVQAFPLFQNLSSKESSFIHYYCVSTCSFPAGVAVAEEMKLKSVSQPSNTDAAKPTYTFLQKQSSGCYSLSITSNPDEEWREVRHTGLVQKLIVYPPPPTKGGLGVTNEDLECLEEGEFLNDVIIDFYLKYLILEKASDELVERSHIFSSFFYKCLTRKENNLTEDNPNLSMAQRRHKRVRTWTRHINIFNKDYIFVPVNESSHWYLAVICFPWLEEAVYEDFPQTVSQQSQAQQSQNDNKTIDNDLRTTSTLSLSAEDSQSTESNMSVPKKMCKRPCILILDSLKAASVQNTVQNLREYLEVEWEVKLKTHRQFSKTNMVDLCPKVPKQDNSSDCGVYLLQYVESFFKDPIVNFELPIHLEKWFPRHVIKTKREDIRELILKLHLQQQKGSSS

[4] = target: T2, Sentrin-specific protease 8 (Homo sapiens, UniProt Q96LD8); assay: SENP8 protease inhibitors, SAR follow-up, biochemical, luminescence (AID 504501); format: functional
T2 sequence (Q96LD8 whole entry): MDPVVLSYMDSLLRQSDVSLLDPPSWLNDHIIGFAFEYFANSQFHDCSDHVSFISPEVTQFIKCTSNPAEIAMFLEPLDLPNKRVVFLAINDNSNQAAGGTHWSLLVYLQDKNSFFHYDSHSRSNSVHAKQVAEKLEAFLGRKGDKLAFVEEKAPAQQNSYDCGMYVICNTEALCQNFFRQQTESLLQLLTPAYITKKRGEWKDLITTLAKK

[5] = target: T3, Sentrin-specific protease 6 (Homo sapiens, UniProt Q9GZR1); assay: SAR Analysis of small molecule inhibitors of Sentrin-specific protease 6 (SENP6) using a Luminescent assay. [Related pubchem assays (depositor defined):AID2582, AID2599]; format: functional
T3 sequence (Q9GZR1 whole entry): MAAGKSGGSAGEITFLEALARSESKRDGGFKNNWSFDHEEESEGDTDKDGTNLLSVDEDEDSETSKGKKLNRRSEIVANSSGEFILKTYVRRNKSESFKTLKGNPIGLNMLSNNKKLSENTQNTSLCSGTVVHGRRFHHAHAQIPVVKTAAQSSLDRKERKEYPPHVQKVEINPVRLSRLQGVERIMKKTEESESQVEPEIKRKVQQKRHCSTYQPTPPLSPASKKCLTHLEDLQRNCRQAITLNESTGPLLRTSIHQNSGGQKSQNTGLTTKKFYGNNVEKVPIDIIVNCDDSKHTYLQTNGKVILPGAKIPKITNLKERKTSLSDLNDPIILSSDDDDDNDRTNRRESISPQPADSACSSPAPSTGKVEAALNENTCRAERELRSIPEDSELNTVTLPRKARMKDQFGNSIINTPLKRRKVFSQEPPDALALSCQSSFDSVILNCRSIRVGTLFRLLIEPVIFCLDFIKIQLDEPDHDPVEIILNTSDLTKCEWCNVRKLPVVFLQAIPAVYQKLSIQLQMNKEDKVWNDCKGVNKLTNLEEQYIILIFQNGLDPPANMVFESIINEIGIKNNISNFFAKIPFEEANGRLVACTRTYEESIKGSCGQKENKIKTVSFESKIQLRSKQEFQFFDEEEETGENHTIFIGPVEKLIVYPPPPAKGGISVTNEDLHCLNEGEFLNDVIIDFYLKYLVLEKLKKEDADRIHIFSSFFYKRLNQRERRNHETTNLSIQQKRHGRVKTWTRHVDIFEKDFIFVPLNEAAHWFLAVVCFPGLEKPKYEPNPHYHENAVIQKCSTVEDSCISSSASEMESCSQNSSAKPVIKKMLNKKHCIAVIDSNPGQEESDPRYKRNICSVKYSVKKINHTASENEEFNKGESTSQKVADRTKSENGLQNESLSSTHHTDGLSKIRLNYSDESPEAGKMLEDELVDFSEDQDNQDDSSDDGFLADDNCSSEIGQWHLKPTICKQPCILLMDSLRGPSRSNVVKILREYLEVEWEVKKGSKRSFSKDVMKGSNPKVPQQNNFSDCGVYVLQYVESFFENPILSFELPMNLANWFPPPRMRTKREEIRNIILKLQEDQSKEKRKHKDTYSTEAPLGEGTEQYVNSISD

Caspase-3 = target: T4, Caspase-3 (Homo sapiens, UniProt P42574); assay: SAR Analysis of small molecule inhibitors of Sentrin-specific proteases (SENPs) using a Caspase-3 Selectivity assay. [Related pubchem assays (depositor defined):AID2540, AID2599, AID434973, AID489001]; format: functional
T4 sequence (P42574 whole entry): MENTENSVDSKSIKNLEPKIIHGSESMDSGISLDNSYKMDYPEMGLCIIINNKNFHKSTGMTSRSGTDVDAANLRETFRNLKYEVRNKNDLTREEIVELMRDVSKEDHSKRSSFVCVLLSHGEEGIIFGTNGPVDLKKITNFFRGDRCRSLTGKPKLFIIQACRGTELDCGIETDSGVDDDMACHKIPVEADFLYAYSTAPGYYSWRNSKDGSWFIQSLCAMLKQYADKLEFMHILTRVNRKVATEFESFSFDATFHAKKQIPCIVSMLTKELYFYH

Cysteine protease ATG4B = target: T5, Cysteine protease ATG4B (Homo sapiens, UniProt Q9Y4P1); format: functional;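 also: Fluorescence-based dose-response confirmation assay measuring inhibition of ATG4B activity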
T5 sequence (Q9Y4P1 whole entry): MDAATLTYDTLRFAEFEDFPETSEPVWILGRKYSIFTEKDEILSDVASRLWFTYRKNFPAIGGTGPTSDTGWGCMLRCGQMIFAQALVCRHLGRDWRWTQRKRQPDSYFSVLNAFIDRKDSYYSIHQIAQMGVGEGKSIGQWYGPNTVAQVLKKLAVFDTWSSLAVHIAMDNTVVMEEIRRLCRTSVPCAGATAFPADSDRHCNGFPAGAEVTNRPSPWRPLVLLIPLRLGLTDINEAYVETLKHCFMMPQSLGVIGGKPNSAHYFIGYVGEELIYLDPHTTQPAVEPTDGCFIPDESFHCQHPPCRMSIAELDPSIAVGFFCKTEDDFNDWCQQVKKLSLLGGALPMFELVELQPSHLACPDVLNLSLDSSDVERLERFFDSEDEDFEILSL

Phospholipase A2 = Phospholipase A2 (Homo sapiens, UniProt P04054); format: functional;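 also: confirmatory dose-response counterscreen on phospholipase A2, testing hits that came from an ultra-high-throughput screen for ATG4B inhibitors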
[6] = target: T6, Mannose-6-phosphate isomerase (Homo sapiens, UniProt P34949); assay: PMI enzyme inhibitors, confirmation, biochemical, fluorescence intensity (AID 1535)
T6 sequence (P34949 whole entry): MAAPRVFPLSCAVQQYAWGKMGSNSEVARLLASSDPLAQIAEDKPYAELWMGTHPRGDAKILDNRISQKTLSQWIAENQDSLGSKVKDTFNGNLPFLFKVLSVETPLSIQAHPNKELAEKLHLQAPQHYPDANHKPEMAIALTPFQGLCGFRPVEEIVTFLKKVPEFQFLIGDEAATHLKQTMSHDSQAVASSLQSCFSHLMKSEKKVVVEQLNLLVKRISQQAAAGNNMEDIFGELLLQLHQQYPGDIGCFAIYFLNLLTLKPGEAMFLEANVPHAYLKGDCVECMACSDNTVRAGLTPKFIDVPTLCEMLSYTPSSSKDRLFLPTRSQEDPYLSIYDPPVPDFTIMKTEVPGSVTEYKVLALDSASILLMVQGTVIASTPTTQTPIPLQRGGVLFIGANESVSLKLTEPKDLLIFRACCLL

[7] = target: T7, Alkaline phosphatase, tissue-nonspecific isozyme (Homo sapiens, UniProt P05186); assay: human TNAP enzyme inhibitors, SAR follow-up, biochemical, luminescent, dose response (AID 1056)
T7 sequence (P05186 whole entry): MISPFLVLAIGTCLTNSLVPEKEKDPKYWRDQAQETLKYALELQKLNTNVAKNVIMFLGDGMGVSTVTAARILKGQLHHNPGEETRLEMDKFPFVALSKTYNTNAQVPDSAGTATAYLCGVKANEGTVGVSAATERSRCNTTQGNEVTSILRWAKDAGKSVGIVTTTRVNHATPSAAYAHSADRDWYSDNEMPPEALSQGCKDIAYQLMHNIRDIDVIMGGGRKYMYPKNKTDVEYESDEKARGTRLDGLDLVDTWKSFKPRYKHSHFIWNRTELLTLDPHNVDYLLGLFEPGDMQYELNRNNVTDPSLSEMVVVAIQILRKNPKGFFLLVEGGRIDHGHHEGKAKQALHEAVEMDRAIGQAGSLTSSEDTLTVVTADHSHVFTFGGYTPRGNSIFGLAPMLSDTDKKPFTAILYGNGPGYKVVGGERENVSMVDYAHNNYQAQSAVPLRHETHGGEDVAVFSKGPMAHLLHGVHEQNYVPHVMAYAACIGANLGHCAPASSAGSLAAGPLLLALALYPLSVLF

[8] = target: T8, Phosphoethanolamine/phosphocholine phosphatase (Homo sapiens, UniProt Q8TCT1); assay: SAR assay for compounds that inhibit PHOSPHO1. [Related pubchem assays (depositor defined):AID1545, AID1565, AID1574]
T8 sequence (Q8TCT1 whole entry): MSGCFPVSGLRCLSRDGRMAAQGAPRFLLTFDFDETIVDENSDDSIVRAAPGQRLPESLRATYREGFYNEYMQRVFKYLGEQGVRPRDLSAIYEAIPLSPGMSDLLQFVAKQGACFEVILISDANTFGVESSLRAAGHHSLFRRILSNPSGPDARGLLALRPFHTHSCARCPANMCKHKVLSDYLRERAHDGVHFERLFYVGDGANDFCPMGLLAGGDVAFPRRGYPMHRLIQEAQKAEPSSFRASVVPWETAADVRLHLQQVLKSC

Phosphomannomutase 2 = target: T9, Phosphomannomutase 2 (Homo sapiens, UniProt O15305); assay: Counter screen SAR assay for PMM2 inhibitors via a fluorescence intensity assay. [Related pubchem assays (depositor defined):AID1545, AID1574]
T9 sequence (O15305 whole entry): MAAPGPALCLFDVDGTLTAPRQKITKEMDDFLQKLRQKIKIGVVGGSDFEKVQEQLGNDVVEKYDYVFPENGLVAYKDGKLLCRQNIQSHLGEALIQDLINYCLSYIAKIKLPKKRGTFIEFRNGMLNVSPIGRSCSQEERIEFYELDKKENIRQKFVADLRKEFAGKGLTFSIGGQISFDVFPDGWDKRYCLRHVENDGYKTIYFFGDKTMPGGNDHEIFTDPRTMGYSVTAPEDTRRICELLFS

cells [9] = format: functional, cell-based
cells [10] = format: functional, cell-based; remark: listed apart in the source
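For EC50 in this document: agonist potency from rise in intracellular calcium fluorescence.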

Phospholipase A2, sequence (P04054 whole entry): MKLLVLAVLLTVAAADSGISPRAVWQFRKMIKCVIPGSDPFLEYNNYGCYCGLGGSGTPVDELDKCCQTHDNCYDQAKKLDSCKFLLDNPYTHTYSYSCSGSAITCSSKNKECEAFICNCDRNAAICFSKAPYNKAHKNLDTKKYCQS

Compound: Cc1onc(-c2ccccc2)c1C(=O)Nc1sc2c(c1C#N)CCC(C)C2 (configuration not stated)
AC50 [1]: 1.12 µM (active)
AC50 [2]: 26.3 µM (active)

IC50 [3]: > 99 µM (inactive)
IC50 [5]: > 99 µM (inactive)
IC50 (Caspase-3): > 99 µM (inactive)
Compound: Fc1ccc(/C=C/c2noc(-c3ccc(C(F)(F)F)cc3F)n2)cc1
IC50 [4]: > 99 µM (inactive)

IC50 (Cysteine protease ATG4B): 22.7 µM (inactive)
IC50 (Phospholipase A2): 17.9 µM (active)
Compound: Cc1cc(C)nc(SCc2ccc(C(=O)N/N=C3\CC(C)CC(C)(C)C3)cc2)n1 (configuration not stated)

IC50 [3]: > 99 µM (inactive)
IC50 [5]: > 99 µM (inactive)
IC50 (Caspase-3): > 99 µM (inactive)
Compound: CC(C)(CC(=O)Nc1scc(-c2ccc(Br)cc2)c1C(=O)O)CC(=O)Nc1scc(-c2ccc(Br)cc2)c1C(=O)O
IC50 [4]: > 99 µM (inactive)

IC50 (Cysteine protease ATG4B): 12.4 µM (active)
IC50 (Phospholipase A2): 8.38 µM (active)
Compound: Fc1ccc(CCN=C(S)Nc2ccc(F)c(Cl)c2)cc1

Compound: COc1ccc(-c2cc([C@H]3[C@H]4C=CC[C@@H](C)[C@@H]4C(=O)N3Cc3ccccc3)ccc2F)cc1
AC50 [1]: 2.76 µM (active)
AC50 [2]: 22 µM (active)

Compound: CCOC(=O)c1ccc(-n2sc3ccccc3c2=O)cc1
IC50 [6]: 23.6 µM (active)
IC50 [7]: > 100 µM (inactive)
IC50 [8]: 1.24 µM (inactive)
IC50 (Phosphomannomutase 2): > 100 µM (inactive)

Compound: OC(COc1ccc(CNCCc2ccccc2F)cc1)CN1CCCCC1 (configuration not stated)
EC50 (cells [9]): > 29.9 µM (inactive)
IC50 (cells [10]): > 29.9 µM (inactive)
AC50 [1]: > 195 µM (inactive)
AC50 [2]: 33.9 µM (active)

IC50 [6]: > 50 µM (inactive)
IC50 [8]: > 100 µM (inactive)
IC50 (Phosphomannomutase 2): > 100 µM (inactive)
Compound: O=c1c2ccc(F)cc2sn1-c1ccc(Cl)c(Cl)c1

From ChEMBL document CHEMBL1201862, “PubChem BioAssay data set” (2004)
